Measurements published in US8598195B2, “Peptidomimetic compounds” (priority 2008, dated 2013).

molecular target: Recombinant human PAI-1 (Homo sapiens, UniProt P05121); test: Plasma clot lysis assay for testing of PAI-1 inhibitors; type: biochemical; conditions: clot lysis in platelet-poor plasma (50%), PAI-1 10-13 ng/mL, t-PA 34 ng/mL, 37° C.; IC50 = concentration at which a halving of the clot lysis time was reached
Method: Plasma Clot Lysis Assay for Testing of PAI-1 Inhibitors
CaCl2, p.a. Stock solution 0.1 M in water.
PAI-1 inhibitors dissolved in 100% DMSO.
Clot Lysis in Platelet-Poor Plasma
Blood from healthy fat-fasting volunteers was collected into 0.13 M trisodium citrate, 9 parts blood to 1 part anticoagulant. The tubes were centrifuged at 2000×g, 20 min, at RT. The supernatant, ie, the platelet poor plasma was pooled, aliquoted and frozen at −85° C. until used. At the day of experiment the plasma was thawed in a water bath and temperated to 37° C. All other constituents, except t-PA, were prewarmed to 37° C. To each well on a microtiter plate, 25 μL CaCl2, 25 μL PAI-1 or 25 μL PAI-1 vehicle, 20 μL saline and 5 μL drug or 5 μL vehicle (100% DMSO) were added. Plasma was mixed with cold t-PA solution in the relation 4 parts plasma with 1 part t-PA, just before adding 125 μL of this mixture to each well. The final concentration was 12.5 mM for CaCl2, 10-13 ng/mL for PAI-1, 34 ng/mL for t-PA, and the compounds were tested at a final concentration range 0.1 nM to 0.25 mM. The final plasma concentration was 50%, as a result of the different additives. The plate, covered with a plastic lid, was placed in a Microplate reader (Molecular Devices, US) and gently shaken. The change in turbidity was immediately monitored as a change in absorbance at 405 nm at 37° C. Data points were collected at intervals of 2 min, during a period of 10 h. After finished reading, the absorbance data were transformed into files containing the time and absorbance values for each well. The clot longevity, ie, the time the clot exists, was determined as the time between clot formation, ie, positive Vmax, and clot lysis, ie, negative Vmax. The effect of the drugs, ie, shortening of the longevity for the clot, was expressed as the concentration at which a halving of the clot lysis time was reached, the IC50 (pIC50=−log IC50). Control clot lysis time, set to 100%, was determined in the presence of PAI-1, and the maximal effect, ie, the shortest lysis time that can be reached under defined conditions in this system, in the absence of PAI-1 was set to 0%.
Compounds having a pIC50 higher than 4 were considered as being active.

Recombinant human PAI-1, sequence (P05121 24-402): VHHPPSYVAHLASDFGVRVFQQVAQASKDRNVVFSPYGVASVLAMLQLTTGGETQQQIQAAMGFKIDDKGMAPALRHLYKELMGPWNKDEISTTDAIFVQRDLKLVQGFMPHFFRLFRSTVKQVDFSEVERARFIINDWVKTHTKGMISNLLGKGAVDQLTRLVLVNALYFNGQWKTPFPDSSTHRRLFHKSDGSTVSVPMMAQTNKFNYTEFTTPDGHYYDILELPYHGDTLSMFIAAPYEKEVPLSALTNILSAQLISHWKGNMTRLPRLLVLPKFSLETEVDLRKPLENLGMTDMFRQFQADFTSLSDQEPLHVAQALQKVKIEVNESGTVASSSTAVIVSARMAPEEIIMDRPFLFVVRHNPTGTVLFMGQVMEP

Q: With `O=C(O)[C@@H]1CSc2c(-c3cccc(C(F)(F)F)c3)c3cn[nH]c3c(=O)n21` [Example 24, (7R)-9-oxo-4-[3-(trifluoromethyl)phenyl]-1,6,7,9-tetrahydropyrazolo[4,3-d][1,3]thiazolo[3,2-a]pyridine-7-carboxylic acid] as the compound, how does the IC50 read?
A: 25.1 µM

Q: For `CCCCCc1n[nH]c2c(=O)n3c(c(-c4cccc(C(F)(F)F)c4)c12)SC[C@H]3C(=O)O` [Example 23, (7R)-9-oxo-3-pentyl-4-[3-(trifluoromethyl)phenyl]-1,6,7,9-tetrahydropyrazolo[4,3-d][1,3]thiazolo[3,2-a]pyridine-7-carboxylic acid], which IC50 is on record?
A: 15.8 µM

Q: Which IC50 does the source give for `CC(C)Cc1n[nH]c2c(=O)n3c(c(-c4cccc(C(F)(F)F)c4)c12)SC[C@H]3C(=O)O` [Example 21, (7R)-3-isobutyl-9-oxo-4-[3-(trifluoromethyl)phenyl]-1,6,7,9-tetrahydropyrazolo[4,3-d][1,3]thiazolo[3,2-a]pyridine-7-carboxylic acid] here?
A: 25.1 µM

Q: `CCCc1n[nH]c2c(=O)n3c(c(-c4cccc(C(F)(F)F)c4)c12)SC[C@H]3C(=O)O` [Example 22, (7R)-9-oxo-3-propyl-4-[3-(trifluoromethyl)phenyl]-1,6,7,9-tetrahydropyrazolo[4,3-d][1,3]thiazolo[3,2-a]pyridine-7-carboxylic acid] was tested. Which IC50 did it give?
A: 20 µM

Q: `CCCCCCc1n[nH]c2c(=O)n3c(c(-c4cccc(C(F)(F)F)c4)c12)SC[C@H]3C(=O)O` [Example 25, (7R)-3-hexyl-9-oxo-4-[3-(trifluoromethyl)phenyl]-1,6,7,9-tetrahydropyrazolo[4,3-d][1,3]thiazolo[3,2-a]pyridine-7-carboxylic acid] was tested. Which IC50 did it give?
A: 12.6 µM

Q: Which IC50 does the source give for `CCCCCCc1n[nH]c2c(=O)n3c(c(-c4ccc(F)c(F)c4)c12)SC[C@H]3C(=O)O` [Example 28, (7R)-4-(3,4-difluorophenyl)-3-hexyl-9-oxo-1,6,7,9-tetrahydropyrazolo[4,3-d][1,3]thiazolo[3,2-a]pyridine-7-carboxylic acid] here?
A: 50.1 µM

Q: Which IC50 does the source give for `CCn1nc(CC(C)C)c2c(-c3cccc(C(F)(F)F)c3)c3n(c(=O)c21)[C@H](C(=O)O)CS3` [Example 27, (7R)-1-ethyl-3-isobutyl-9-oxo-4-[3-(trifluoromethyl)phenyl]-1,6,7,9-tetrahydropyrazolo[4,3-d][1,3]thiazolo[3,2-a]pyridine-7-carboxylic acid] here?
A: 79.4 µM

Q: For `CCCCCCc1n[nH]c2c(=O)n3c(c(-c4ccc(F)c(F)c4)c12)SC[C@H]3C(=O)NS(=O)(=O)c1ccccc1` [Example 29, (7R)-4-(3,4-difluorophenyl)-3-hexyl-9-oxo-N-(phenylsulfonyl)-1,6,7,9-tetrahydropyrazolo[4,3-d][1,3]thiazolo[3,2-a]pyridine-7-carboxamide], which IC50 is on record?
A: 6.31 µM

molecular target: T1, Aβ 1-40 (Homo sapiens, UniProt P05067); test: Aβ aggregation assay for testing of inhibition of amyloid fibril formation (Thioflavin T fluorescence); type: biochemical; conditions: 100 μM Aβ 1-40, 5% DMSO, 37° C., 24 hours; FIG. 1
T1 construct: Lyophilized Aβ 1-40 was dissolved to 500 μM in 4 mM NaOH and divided in two parts
Method: Effect of test substances on aggregation of Aβ 1-40 was measured by detecting fluorescence of added Thioflavin T (ThT). The ThT-fluorescence of Aβ 1-40 aggregated in the presence of the indicated substances was compared to the ThT-fluorescence of Aβ 1-40 aggregated in the presence of 5% DMSO.
Aβ Aggregation Assay for Testing of Inhibition Amyloid Fibril Formation
Lyophilized Aβ 1-40 was dissolved to 500 μM in 4 mM NaOH and divided in two parts. One part was diluted to 20 μM in PBS (50 mM phosphate buffer pH 7.4 containing 100 mM NaCl) and coated onto an ELISA 96-well plate (Costar) for 1 h at room temperature. The plate was washed in PBS to remove unbound Aβ 1-40. Substances (in DMSO) were diluted with PBS to different concentrations in the Aβ 1-40 coated ELISA plate. The second part of NaOH-solubilized Aβ 1-40 was thereafter added to each well to yield a final concentration of 100 μM Aβ 1-40 and 5% DMSO. The plate was incubated at 37° C. with agitation (600 rpm) for 24 hours to allow aggregation of Aβ 1-40.
The Aβ-substance mix was after aggregation diluted 10 times with 25 μM Thioflavin T (ThT) in PBS. The ThT-fluorescence was detected immediately by excitation at 450 nm and emission at 482 nm. The ThT-fluorescence of Aβ 1-40 aggregated with substances was compared to the ThT-fluorescence of Aβ 1-40 aggregated in the presence of 5% DMSO.

T1 sequence (P05067 672-711): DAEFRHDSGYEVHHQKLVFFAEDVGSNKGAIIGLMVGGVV

Q: Which “Effect on aggregation of Aβ 1-40 (ThT-fluorescence compared to 5% DMSO)” value (from here on “Effect … (ThT-fluorescence compared to 5% DMSO)”) does the source give for `CC(C)Cc1n[nH]c2c(=O)n3c(c(-c4cccc(C(F)(F)F)c4)c12)SC[C@H]3C(=O)O` [Example 21, (7R)-3-isobutyl-9-oxo-4-[3-(trifluoromethyl)phenyl]-1,6,7,9-tetrahydropyrazolo[4,3-d][1,3]thiazolo[3,2-a]pyridine-7-carboxylic acid] here?
A: interfere with the formation of amyloid fibrils

Q: With `CC(C)CC1=NN=C2C(=O)N3C(SC[C@H]3C(=O)O)C(c3ccccc3)=C12` (stereo partly drawn) [Example 37, (7R)-6,7-dihydro-3-isobutyl-4-phenyl-pyrazolo[4,5-d]thiazolo[3,2-a]pyridine-9-one-7-carboxylic acid] as the compound, how does the “Effect … (ThT-fluorescence compared to 5% DMSO)” value read?
A: interfere with the formation of amyloid fibrils

Q: With `COc1ccc(C2=NN=C3C(=O)N4C(SC[C@H]4C(=O)O)C(c4ccccc4)=C32)cc1` (stereo partly drawn) [Example 39, (7R)-6,7-dihydro-3-(4-methoxyphenyl)-4-phenyl-pyrazolo[4,5-d]thiazolo[3,2-a]pyridine-9-one-7-carboxylic acid] as the compound, how does the “Effect … (ThT-fluorescence compared to 5% DMSO)” value read?
A: interfere with the formation of amyloid fibrils
